Assay results: article PMC5218480 (PLoS ONE, 2017)

Tested on: MV-4-11 cells
Test: Gene expression microarray analysis (Affymetrix PrimeView) and GSEA
Type: cell-based, human
Set-up: RFU PODN (11730768_x_at) / Fold change /veh PODN (11730768_x_at) / RFU LINC00158 (11744669_a_at) / Fold change /veh LINC00158 (11744669_a_at) / RFU DUSP10 (11751237_a_at) / Fold change /veh DUSP10 (11751237_a_at) / RFU ID3 (11757404_x_at) / Fold change /veh ID3 (11757404_x_at) / RFU PLEKHG5 (11737974_s_at) / Fold change /veh PLEKHG5 (11737974_s_at) / RFU LRRC4B (11730491_at) / Fold change /veh LRRC4B (11730491_at) / RFU GIMAP4 (11747438_a_at) / Fold change /veh GIMAP4 (11747438_a_at) / RFU KRT8 (11758183_x_at) / Fold change /veh KRT8 (11758183_x_at) / RFU CNN1 (11734310_a_at) / Fold change /veh CNN1 (11734310_a_at) / RFU VPS37D (11726825_at) / Fold change /veh VPS37D (11726825_at) / RFU C10orf10 (11716522_x_at) / Fold change /veh C10orf10 (11716522_x_at) / RFU KIR2DL2 /// KIR2DL4 /// KIR2DL5A /// KIR2DL5B /// KIR2DS1 /// KIR2DS2 /// KIR2DS3 /// KIR2DS4 /// KIR3DL3 /// KIR3DL3 /// KIR3DS1 (11738374_at) / Fold change /veh KIR2DL2 /// KIR2DL4 /// KIR2DL5A /// KIR2DL5B /// KIR2DS1 /// KIR2DS2 /// KIR2DS3 /// KIR2DS4 /// KIR3DL3 /// KIR3DL3 /// KIR3DS1 (11738374_at) / RFU C1QL1 (11718748_at) / Fold change /veh C1QL1 (11718748_at) / RFU TMPRSS4 (11747572_a_at) / Fold change /veh TMPRSS4 (11747572_a_at) / RFU HAMP (11756126_x_at) / Fold change /veh HAMP (11756126_x_at) / RFU RNFT2 (11725882_a_at) / Fold change /veh RNFT2 (11725882_a_at) / RFU NR4A2 (11747474_a_at) / Fold change /veh NR4A2 (11747474_a_at) / RFU ABCC12 (11746883_a_at) / Fold change /veh ABCC12 (11746883_a_at) / RFU TMEM136 (11760407_x_at) / Fold change /veh TMEM136 (11760407_x_at) / RFU CLDN22 /// WWC2 (11732394_at) / Fold change /veh CLDN22 /// WWC2 (11732394_at) / RFU HLA-DPB1 (11760878_x_at) / Fold change /veh HLA-DPB1 (11760878_x_at) / RFU SPINT1 (11716480_a_at) / Fold change /veh SPINT1 (11716480_a_at) / RFU GAP43 (11754022_s_at) / Fold change /veh GAP43 (11754022_s_at) / RFU A4GNT (11735810_at) / Fold change /veh A4GNT (11735810_at) / RFU PRB3 (11715151_x_at) / Fold change /veh PRB3 (11715151_x_at) / RFU TUBB4B (11761932_at) / Fold change /veh TUBB4B (11761932_at) / RFU CAPN14 (11732068_a_at) / Fold change /veh CAPN14 (11732068_a_at) / RFU TMCC2 (11721928_a_at) / Fold change /veh TMCC2 (11721928_a_at) / RFU IRGQ (11745062_a_at) / Fold change /veh IRGQ (11745062_a_at) / RFU FAM174B (11720279_a_at) / Fold change /veh FAM174B (11720279_a_at) / RFU TMPRSS4 (11748680_a_at) / Fold change /veh TMPRSS4 (11748680_a_at) / RFU FAM212B (11763350_a_at) / Fold change /veh FAM212B (11763350_a_at) / RFU PLEKHG5 (11743358_a_at) / Fold change /veh PLEKHG5 (11743358_a_at) / RFU ZSCAN30 (11745921_a_at) / Fold change /veh ZSCAN30 (11745921_a_at) / RFU CMKLR1 (11741424_a_at) / Fold change /veh CMKLR1 (11741424_a_at) / RFU LOC101060620 /// MAPK8IP1 (11723275_at) / Fold change /veh LOC101060620 /// MAPK8IP1 (11723275_at) / RFU SPTSSB (11747773_x_at) / Fold change /veh SPTSSB (11747773_x_at) / RFU PRSS12 (11739890_at) / Fold change /veh PRSS12 (11739890_at) / RFU BIN1 (11741810_x_at) / Fold change /veh BIN1 (11741810_x_at) / RFU WNT11 (11732464_a_at) / Fold change /veh WNT11 (11732464_a_at) / RFU C10orf10 (11716521_a_at) / Fold change /veh C10orf10 (11716521_a_at) / RFU C5orf56 (11738089_at) / Fold change /veh C5orf56 (11738089_at) / RFU CYB561 (11721691_x_at) / Fold change /veh CYB561 (11721691_x_at) / RFU ANKRD19P (11752326_a_at) / Fold change /veh ANKRD19P (11752326_a_at) / RFU OR2T12 /// OR2T33 /// OR2T8 (11738714_s_at) / Fold change /veh OR2T12 /// OR2T33 /// OR2T8 (11738714_s_at) / RFU VCAN (11748164_a_at) / Fold change /veh VCAN (11748164_a_at) / RFU JSRP1 (11732532_at) / Fold change /veh JSRP1 (11732532_at) / RFU KRTAP10-11 (11738290_x_at) / Fold change /veh KRTAP10-11 (11738290_x_at) / RFU MYO3A (11730013_a_at) / Fold change /veh MYO3A (11730013_a_at) / RFU EBF3 (11725865_a_at) / Fold change /veh EBF3 (11725865_a_at) / RFU CAMK2N1 (11719241_x_at) / Fold change /veh CAMK2N1 (11719241_x_at) / RFU C5orf56 (11738088_a_at) / Fold change /veh C5orf56 (11738088_a_at) / RFU OLFML3 (11715873_a_at) / Fold change /veh OLFML3 (11715873_a_at) / RFU LOC100653217 /// NTM (11731650_a_at) / Fold change /veh LOC100653217 /// NTM (11731650_a_at) / RFU MAPK11 (11762145_a_at) / Fold change /veh MAPK11 (11762145_a_at) / RFU FIZ1 (11724087_x_at) / Fold change /veh FIZ1 (11724087_x_at) / RFU OASL (11726364_x_at) / Fold change /veh OASL (11726364_x_at) / RFU SOX15 (11748057_x_at) / Fold change /veh SOX15 (11748057_x_at) / RFU CD79A (11719716_a_at) / Fold change /veh CD79A (11719716_a_at) / RFU HIST1H1D (11736915_at) / Fold change /veh HIST1H1D (11736915_at) / RFU CASKIN2 (11723855_a_at) / Fold change /veh CASKIN2 (11723855_a_at) / RFU LOC730098 (11760151_x_at) / Fold change /veh LOC730098 (11760151_x_at) / RFU OR4N2 (11742367_at) / Fold change /veh OR4N2 (11742367_at) / RFU PRRT2 (11749266_a_at) / Fold change /veh PRRT2 (11749266_a_at) / RFU SNX32 (11753110_a_at) / Fold change /veh SNX32 (11753110_a_at) / RFU CDHR5 (11726645_a_at) / Fold change /veh CDHR5 (11726645_a_at) / RFU RCAN1 (11760418_a_at) / Fold change /veh RCAN1 (11760418_a_at) / RFU FAM167A (11723789_a_at) / Fold change /veh FAM167A (11723789_a_at) / RFU FAM26E (11764081_at) / Fold change /veh FAM26E (11764081_at) / RFU ISYNA1 (11749810_s_at) / Fold change /veh ISYNA1 (11749810_s_at) / RFU ACY1 (11761880_at) / Fold change /veh ACY1 (11761880_at) / RFU 11764098_at / Fold change /veh 11764098_at / RFU SAMD14 (11745864_x_at) / Fold change /veh SAMD14 (11745864_x_at) / RFU NPB (11741838_a_at) / Fold change /veh NPB (11741838_a_at) / RFU TMPRSS6 (11731388_a_at) / Fold change /veh TMPRSS6 (11731388_a_at) / RFU KRTAP10-2 (11738614_at) / Fold change /veh KRTAP10-2 (11738614_at) / RFU ARHGAP8 /// PRR5-ARHGAP8 (11727945_x_at) / Fold change /veh ARHGAP8 /// PRR5-ARHGAP8 (11727945_x_at) / RFU KRTAP5-7 /// NADSYN1 (11734609_at) / Fold change /veh KRTAP5-7 /// NADSYN1 (11734609_at) / RFU RASL12 (11751679_a_at) / Fold change /veh RASL12 (11751679_a_at) / RFU CDKN2B (11736163_a_at) / Fold change /veh CDKN2B (11736163_a_at) / RFU PRF1 (11729649_at) / Fold change /veh PRF1 (11729649_at) / RFU, ZNF638 /// ZNF638-IT1 / Fold change vs veh, ZNF638 /// ZNF638-IT1 / RFU, PANK3 / Fold change vs veh, PANK3 / RFU, SH3YL1 / Fold change vs veh, SH3YL1 / RFU, ZEB2 / Fold change vs veh, ZEB2 / RFU, NRIP1 / Fold change vs veh, NRIP1 / RFU, PTTG1IP / Fold change vs veh, PTTG1IP / RFU, CAPN2 / Fold change vs veh, CAPN2 / RFU, MED14 / Fold change vs veh, MED14 / RFU, SNORA58 / Fold change vs veh, SNORA58 / RFU, C1orf63 / Fold change vs veh, C1orf63 / RFU, LRRFIP1 / Fold change vs veh, LRRFIP1 / RFU, NDUFAF7 / Fold change vs veh, NDUFAF7 / RFU, SLC12A2 / Fold change vs veh, SLC12A2 / RFU, IBTK / Fold change vs veh, IBTK / RFU, ESF1 / Fold change vs veh, ESF1 / Fold change vs veh, TMEM50B / RFU, TAOK1 / Fold change vs veh, TAOK1 / RFU, ACBD3 / Fold change vs veh, ACBD3 / RFU, TMA16 / Fold change vs veh, TMA16 / RFU, RWDD3 / Fold change vs veh, RWDD3 / RFU, BCAT1 / Fold change vs veh, BCAT1 / RFU, EDEM3 / Fold change vs veh, EDEM3 / RFU, TMEM33 / Fold change vs veh, TMEM33 / RFU, WDR75 / Fold change vs veh, WDR75 / RFU, AHCTF1 / Fold change vs veh, AHCTF1 / RFU, TFRC / Fold change vs veh, TFRC / RFU, ZDHHC17 / Fold change vs veh, ZDHHC17 / RFU, NOM1 / Fold change vs veh, NOM1 / RFU, ARL8B / Fold change vs veh, ARL8B / RFU, ZBTB11 / Fold change vs veh, ZBTB11 / RFU, TAMM41 / Fold change vs veh, TAMM41 / RFU, KIAA1704 /// LOC100996395 / Fold change vs veh, KIAA1704 /// LOC100996395 / RFU, ING1 / Fold change vs veh, ING1 / RFU, TRMT61B / Fold change vs veh, TRMT61B / RFU, FUBP3 / Fold change vs veh, FUBP3 / RFU, TP53 / Fold change vs veh, TP53 / RFU, TNKS2 / Fold change vs veh, TNKS2 / RFU, ZFP14 / Fold change vs veh, ZFP14 / RFU, ACTR2 / Fold change vs veh, ACTR2 / RFU, PPP3R1 / Fold change vs veh, PPP3R1 / RFU, PIK3R1 / Fold change vs veh, PIK3R1 / RFU, HNRNPA1 / Fold change vs veh, HNRNPA1 / RFU, RNF170 / Fold change vs veh, RNF170 / RFU, ZNF28 / Fold change vs veh, ZNF28 / RFU, RNGTT / Fold change vs veh, RNGTT / RFU, OGT / Fold change vs veh, OGT / RFU, BRD1 / Fold change vs veh, BRD1 / RFU, MARS / Fold change vs veh, MARS / RFU, ZNF655 / Fold change vs veh, ZNF655 / RFU, FAHD1 / Fold change vs veh, FAHD1 / RFU, BDP1 / Fold change vs veh, BDP1 / RFU, LRRCC1 / Fold change vs veh, LRRCC1 / RFU, ARID1A / Fold change vs veh, ARID1A / RFU, ZNF146 / Fold change vs veh, ZNF146 / RFU, ZNF330 / Fold change vs veh, ZNF330 / RFU, GPN3 / Fold change vs veh, GPN3 / RFU, C9orf123 / Fold change vs veh, C9orf123 / RFU, N4BP2L2 / Fold change vs veh, N4BP2L2 / RFU, ARFIP1 / Fold change vs veh, ARFIP1 / RFU, FAM179B / Fold change vs veh, FAM179B / RFU, BCL10 / Fold change vs veh, BCL10 / RFU, UHRF1BP1L / Fold change vs veh, UHRF1BP1L / RFU, BET1 / Fold change vs veh, BET1 / RFU, CNOT2 / Fold change vs veh, CNOT2 / RFU, ZNF268 / Fold change vs veh, ZNF268 / Fold change vs veh, ZNF507 / RFU, DGCR2 / Fold change vs veh, DGCR2 / RFU, WDSUB1 / Fold change vs veh, WDSUB1 / Fold change vs veh, HSP90B1 /// MIR3652 / RFU, ADSS / Fold change vs veh, ADSS / RFU, GK / Fold change vs veh, GK / RFU, ZNF148 / Fold change vs veh, ZNF148 / RFU, TAF9 / Fold change vs veh, TAF9 / RFU, SLC1A5 / Fold change vs veh, SLC1A5 / RFU, SLMO2 / Fold change vs veh, SLMO2 / RFU, ABCC4 / Fold change vs veh, ABCC4 / RFU, LOC101060439 /// RAP1B / Fold change vs veh, LOC101060439 /// RAP1B / RFU, RFX7 / Fold change vs veh, RFX7 / RFU, GTPBP10 / Fold change vs veh, GTPBP10 / RFU, CNEP1R1 / Fold change vs veh, CNEP1R1 / RFU, BIVM-ERCC5 /// ERCC5 / Fold change vs veh, BIVM-ERCC5 /// ERCC5 / RFU, ILF3 / Fold change vs veh, ILF3 / RFU 11762660_at / Fold change /veh 11762660_at / RFU VCAN (11757783_s_at) / Fold change /veh VCAN (11757783_s_at) / RFU DDX43 (11728927_at) / Fold change /veh DDX43 (11728927_at) / RFU KRT8 (11758188_x_at) / Fold change /veh KRT8 (11758188_x_at) / RFU NKD1 (11759106_at) / Fold change /veh NKD1 (11759106_at) / RFU SRD5A1 (11742802_a_at) / Fold change /veh SRD5A1 (11742802_a_at) / RFU TPSAB1 /// TPSB2 (11721975_s_at) / Fold change /veh TPSAB1 /// TPSB2 (11721975_s_at) / RFU GSTM3 (11746129_a_at) / Fold change /veh GSTM3 (11746129_a_at) / RFU IL23R (11737362_x_at) / Fold change /veh IL23R (11737362_x_at) / RFU TMEM51 (11727254_a_at) / Fold change /veh TMEM51 (11727254_a_at) / RFU PIWIL2 (11732686_x_at) / Fold change /veh PIWIL2 (11732686_x_at) / RFU ORM1 (11744905_x_at) / Fold change /veh ORM1 (11744905_x_at) / RFU CCDC152 (11743942_at) / Fold change /veh CCDC152 (11743942_at) / RFU ECM1 (11717891_a_at) / Fold change /veh ECM1 (11717891_a_at) / RFU IL23R (11748794_a_at) / Fold change /veh IL23R (11748794_a_at) / RFU TNFAIP8L3 (11732012_x_at) / Fold change /veh TNFAIP8L3 (11732012_x_at) / RFU MBOAT4 (11741988_at) / Fold change /veh MBOAT4 (11741988_at) / RFU 11764193_at / Fold change /veh 11764193_at / RFU TMEM53 (11763286_at) / Fold change /veh TMEM53 (11763286_at) / RFU MAGEB2 (11727129_at) / Fold change /veh MAGEB2 (11727129_at) / RFU TMEM200A (11744735_a_at) / Fold change /veh TMEM200A (11744735_a_at) / RFU CCDC152 (11751479_a_at) / Fold change /veh CCDC152 (11751479_a_at) / RFU FAM211A (11726209_a_at) / Fold change /veh FAM211A (11726209_a_at) / RFU RGS16 (11746705_a_at) / Fold change /veh RGS16 (11746705_a_at) / RFU VCAN (11755009_s_at) / Fold change /veh VCAN (11755009_s_at) / RFU RHOB (11743442_s_at) / Fold change /veh RHOB (11743442_s_at) / RFU RGS16 (11720943_a_at) / Fold change /veh RGS16 (11720943_a_at) / RFU RGS16 (11720944_at) / Fold change /veh RGS16 (11720944_at) / RFU, VPS4B / Fold change vs veh, VPS4B / RFU, CREB1 / Fold change vs veh, CREB1 / RFU, DNAJC13 / Fold change vs veh, DNAJC13 / RFU, GNAQ / Fold change vs veh, GNAQ / RFU, CDK5R1 / Fold change vs veh, CDK5R1 / RFU, ZRANB3 / Fold change vs veh, ZRANB3 / RFU, CUL4A / Fold change vs veh, CUL4A / RFU, CCNY / Fold change vs veh, CCNY / RFU, UFL1 / Fold change vs veh, UFL1 / RFU, COG3 / Fold change vs veh, COG3 / RFU, DIAPH2 / Fold change vs veh, DIAPH2 / RFU, SKA2 / Fold change vs veh, SKA2 / RFU, AFF3 / Fold change vs veh, AFF3 / RFU, LMF1 / Fold change vs veh, LMF1 / RFU, IPO11 / Fold change vs veh, IPO11 / RFU, DFFB / Fold change vs veh, DFFB / RFU, FOXP1 / Fold change vs veh, FOXP1 / RFU, CARD8 / Fold change vs veh, CARD8 / RFU, STRN3 / Fold change vs veh, STRN3 / RFU, ADK / Fold change vs veh, ADK / RFU, RASSF2 / Fold change vs veh, RASSF2 / RFU, WIPF1 / Fold change vs veh, WIPF1 / RFU, LARP1B / Fold change vs veh, LARP1B / RFU, RASA1 / Fold change vs veh, RASA1 / RFU, RB1 / Fold change vs veh, RB1 / RFU, PPFIA1 / Fold change vs veh, PPFIA1 / RFU, MAT2A / Fold change vs veh, MAT2A / RFU, CCT5 / Fold change vs veh, CCT5 / RFU, WDR92 / Fold change vs veh, WDR92 / RFU, CUX1 / Fold change vs veh, CUX1 / RFU, TTC7A / Fold change vs veh, TTC7A / RFU, TMEM135 / Fold change vs veh, TMEM135 / RFU, DEPTOR / Fold change vs veh, DEPTOR / RFU, CPM / Fold change vs veh, CPM / RFU, DNAJB6 / Fold change vs veh, DNAJB6 / RFU, CACNA2D3 / Fold change vs veh, CACNA2D3 / RFU, DTX4 / Fold change vs veh, DTX4 / RFU, TFCP2 / Fold change vs veh, TFCP2 / RFU, GMCL1 /// GMCL1P1 / Fold change vs veh, GMCL1 /// GMCL1P1 / RFU, AEBP2 / Fold change vs veh, AEBP2 / RFU, SNHG1 /// SNORD22 /// SNORD25 /// SNORD26 /// SNORD27 /// SNORD28 /// SNORD29 /// SNORD31 / Fold change vs veh, SNHG1 /// SNORD22 /// SNORD25 /// SNORD26 /// SNORD27 /// SNORD28 /// SNORD29 /// SNORD31 / Fold change (Aza/veh), C12orf56 (ProbeSet 11735607_a_at) / Fold change (ACY-1035/veh), C12orf56 (ProbeSet 11735607_a_at) / Fold change (Aza/veh), FGFR1OP (ProbeSet 11751329_s_at) / Fold change (ACY-1035/veh), FGFR1OP (ProbeSet 11751329_s_at) / Fold change (Aza/veh), VPS36 (ProbeSet 11739960_a_at) / Fold change (ACY-1035/veh), VPS36 (ProbeSet 11739960_a_at) / RFU SYPL1 (11715823_x_at) / Fold change /veh SYPL1 (11715823_x_at) / RFU IGFBP7 (11715501_s_at) / Fold change /veh IGFBP7 (11715501_s_at) / RFU REEP3 (11722064_at) / Fold change /veh REEP3 (11722064_at) / RFU IGLL1 (11728026_x_at) / Fold change /veh IGLL1 (11728026_x_at): dose or concentration left out as unconfirmed
Details: MV-4-11 cells, 48 hours

SMILES: Nc1ncn([C@@H]2O[C@H](CO)[C@@H](O)[C@H]2O)c(=O)n1 [azacitidine]
- RFU MBOAT4 (11741988_at): 11.61 RFU
